Source: PMC9963009, “Investigation of the Protective Effect for GcMAF by a Glycosidase Inhibitor and the Glycan Structure of Gc Protein” (Molecules, 2023)

Biological target: T1, α-N-acetylgalactosaminidase (α-GalNAc-ase) from chicken liver (Gallus gallus, UniProt Q90744)
T1 construct: gene NAGA; commercial enzyme from chicken liver
T1 sequence (Q90744 1-405): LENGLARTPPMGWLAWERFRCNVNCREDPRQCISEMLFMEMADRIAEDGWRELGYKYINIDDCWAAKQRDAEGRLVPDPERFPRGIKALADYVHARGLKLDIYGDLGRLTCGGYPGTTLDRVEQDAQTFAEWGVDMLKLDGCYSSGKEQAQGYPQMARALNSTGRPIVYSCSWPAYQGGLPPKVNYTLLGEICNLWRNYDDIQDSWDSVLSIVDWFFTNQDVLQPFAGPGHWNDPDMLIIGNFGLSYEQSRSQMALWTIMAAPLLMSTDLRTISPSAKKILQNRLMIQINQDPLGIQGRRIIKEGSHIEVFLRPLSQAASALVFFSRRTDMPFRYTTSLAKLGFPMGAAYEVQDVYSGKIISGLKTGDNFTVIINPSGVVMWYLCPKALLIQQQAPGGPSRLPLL
Assay: LC-MS of Gc protein glycopeptides after treatment with a mix of three glycosidases with/without […] inhibitor
Assay type: biochemical

OCC1NC(CNCCc2ccccc2)C(O)C1O (stereo not shown) [iminocyclitol, 2-Hydroxymethyl-5-(phenethylaminomethyl)-pyrrolidine-3,4-diol]
LC-MS of Gc protein glycopeptides after treatment with a mix of three glycosidas: the inhibitory activity of iminocyclitol against α-GalNAc-ase was also observed (Figure 4c)
